Experimental data taken from publication PMC7915682, “Pursuing Orally Bioavailable Hepcidin Analogues via Cyclic N-Methylated Mini-Hepcidins” (Biomedicines, 2021).
Where two headings read alike, the source gives them in different places. Where a SMILES comes first, the peptide text is derived from it. Where no end group is shown, it is not given here.

How the values were obtained:
[1] = molecular target: T1, GFP-tagged ferroportin (FPN) (Homo sapiens, UniProt Q9NP59); assay: FPN-GFP degradation (internalisation) assay by flow cytometry in HEK293:T-REx-FPN-GFP cells; assay type: cell-based; details: 24 h treatment; for EC50: FPN degradation dose-response, HEK293:T-REx-FPN-GFP cells; for FPN Degradation % ± SEM: peptide 10 μM, normalised with respect to hepcidin (1 μM), n = 3
T1 construct: expressed in transfected cells
T1 sequence (Q9NP59 1-571): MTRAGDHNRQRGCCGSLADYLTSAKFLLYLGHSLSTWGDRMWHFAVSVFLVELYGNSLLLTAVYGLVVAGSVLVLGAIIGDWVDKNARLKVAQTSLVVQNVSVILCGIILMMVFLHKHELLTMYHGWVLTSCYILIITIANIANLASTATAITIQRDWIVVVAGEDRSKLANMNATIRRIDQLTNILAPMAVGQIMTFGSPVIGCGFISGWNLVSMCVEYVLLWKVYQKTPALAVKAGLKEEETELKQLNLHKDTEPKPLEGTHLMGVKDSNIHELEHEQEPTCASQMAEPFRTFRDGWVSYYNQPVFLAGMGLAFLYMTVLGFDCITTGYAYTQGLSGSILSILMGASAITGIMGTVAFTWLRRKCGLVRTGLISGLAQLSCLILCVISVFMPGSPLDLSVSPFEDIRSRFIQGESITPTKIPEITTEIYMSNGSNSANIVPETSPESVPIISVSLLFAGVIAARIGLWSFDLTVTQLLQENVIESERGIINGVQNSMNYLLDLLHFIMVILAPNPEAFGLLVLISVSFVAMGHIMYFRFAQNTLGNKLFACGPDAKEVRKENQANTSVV
Protocol: HEK293:T-REx^TM-FPN-GFP cells, described previously, were cultured in T75 flasks containing FPN-GFP media (Dulbecco’s Modified Eagle’s Medium (DMEM) containing high glucose, GlutaMAX^TM supplement, hydroxyethyl piperazineethanesulfonic acid (HEPES), 10% tetracycline screened foetal bovine serum (FBS), 1% penicillin/streptomycin, and 100 μg/mL of hygromycin) and maintained at 37 °C in a humidified atmosphere of 5% CO2.
HEK293:T-REx^TM-FPN-GFP cells were plated in FPN-GFP media in the presence of 20 µM FAC (ferric ammonium citrate = ammonium iron (III) citrate) and induced on the following day with 50 ng/mL of doxycycline hydrochloride. After 24 h, doxycycline hydrochloride was washed off with PBS (phosphate buffered saline) and the cells were treated with peptides for another 24 h. Cells were then trypsinised, centrifuged (5 min at 1000 rpm), and resuspended in PBS at approximately 1 × 10^4 cell/µL. The intensity of green fluorescence was measured by flow cytometry performed on a Becton Dickinson LSR Fortessa-X-20. Cells not induced with doxycycline hydrochloride were used to establish a gate to exclude background fluorescence, and cells induced to express FPN-GFP but not treated with any peptides were used as the positive control. Each peptide treatment was repeated independently at least three times except for the initial screening of the mono N-methylated analogues (Figure 2), which was only performed once. The results were expressed as the % of the reduction in fluorescence with respect to hepcidin-treated cells according to the following formula: % FPN Degradation = (1 − (average FHepc − Fχ)/(average FHepc − average Funtreated)) × 100, where F corresponds to the GFP gate median, and χ to the peptide analysed.
Peptide bioactivity was measured using HEK293:T-REx^TM-FPN-GFP cells stably expressing a GFP-tagged ferroportin (FPN) construct that was treated overnight with different concentrations of hepcidin or analogues. FPN-GFP expression and FPN-GFP internalisation and degradation in response to hepcidin treatment were confirmed by confocal microscopy, and the % of GFP fluorescence was then analysed by flow cytometry and expressed as a % FPN degradation. […] This promising result led us to design a second series of analogues that included multiple N-methylated residues with and without backbone cyclisation.

[2] = Serum stability assay (25% human male serum, 37 °C, LC-MS); assay type: in vitro ADME
Protocol: Human male serum was centrifuged at 20,000 g for 10 min and the clear part of the supernatant was then diluted to 25% (v/v) with Milli-Q® water and incubated at 37 °C for 15 min. Each peptide sample was dissolved in triplicate at a final concentration of 20 μM in pre-incubated 25% serum, or Milli-Q® water as a control. […] Supernatant was then removed and transferred into vials for liquid chromatography mass spectrometry (LC-MS) analysis (50 μL injection and multiple reaction monitoring (MRM) protocol, Table S2). The effect of these strategies on the stability of mini-hepcidin analogues was investigated by incubating selected derivatives in human male serum at 37 °C and collecting samples at various time points. The results were then quantitated by liquid chromatography-mass spectrometry (LC-MS). We were unable to determine the serum stability of all analogues as the recovery from serum and detection of the peptides was very low. Modification of sample preparation protocols, optimisation of LC/MS conditions, and reducing serum concentration to 25% were unable to improve yield/detection. We would predict that this poor recovery is due to high binding of peptides to serum proteins, which is consistent with native hepcidin, which binds to α-2-macroglobulin [35, 36]. […] Effect of macrocyclisation and N-methylation on the stability of selected mini- hepcidin derivatives. A) Illustration of sites most susceptible to enzymatic attack in mini- hepcidin derivatives. B) Serum stability analysis of selected […]. Human male serum was centrifuged at 20,000 g for 10 minutes and the clear part of the supernatant was then diluted to 25% (v/v) with Milli-Q® water and incubated at 37 °C for 15 minutes. Each peptide sample was dissolved in triplicate at a final concentration of 20 μM in pre-incubated 25% serum, or Milli-Q® water as a control. Aliquots of 100 μL were removed at different time points and quenched with 100 μL of 15% trichloroacetic acid (TCA), followed by […] Supernatant was then removed and transferred into vials for liquid chromatography mass spectrometry (LC- MS) analysis (50 μL injection and multiple reaction monitoring (MRM) protocol). Error bars […] Comparison between Hep9, 2, […]9, 9. (also on this page, place not known: […] Hep9 2 […]] 7 Proteolytic attack Reduced proteolytic attack Blocked proteolytic attack 0 50 100 150 200 0 50 100 Time /min % Peptide Remaining 2 9 A B 7) (1 picture or pasted object on this page, not shown here)

[3] = test system: Caco-2; assay: Caco-2 in vitro model (preliminary); assay type: in vitro ADME; details: preliminary results, data not shown
From the text: It has been proposed that by enhancing the lipophilicity of peptides, the intestinal permeability could be improved by facilitating transcellular absorption (passive diffusion). Thus, our rationale was to improve the permeability of Hep9 2, by increasing its lipophilicity via both cyclisation and multiple N-methylations. […] Cyclisation and N-methylation appear to facilitate the crossing of the artificial lipid membrane for cHep9[Ser^1, MeThr^2, MeIle^8] 13, but this enhancement was not statistically significant relative to atenolol, a marker for poor transcellular permeability, or Hep9 2, (Figure 5). […] Preliminary results from a Caco-2 in vitro model were consistent with the PAMPA data (data not shown).

Compound	EC50 [1]	further results
DTHFP[N-Me I]C[N-Me I]F [Peptide 4]		FPN Degradation % ± SEM [1]: Not active
c(DTH[N-Me F]PICI[N-Me F]) [Peptide 11]		FPN Degradation % ± SEM [1]: 63 ± 1.6%
CC[C@H](C)[C@H]1C(=O)N[C@@H](Cc2ccccc2)C(=O)N[C@@H](CC(=O)O)C(=O)N[C@@H]([C@@H](C)O)C(=O)N[C@@H](Cc2c[nH]cn2)C(=O)N[C@@H](Cc2ccccc2)C(=O)N2CCC[C@H]2C(=O)N(C)[C@@H]([C@@H](C)CC)C(=O)N[C@@H](CS)C(=O)N1C [Peptide 12, c(DTHFP[N-Me I]C[N-Me I]F)]	2.9 µM	
CC[C@H](C)[C@H](NC(=O)[C@H](CS)NC(=O)[C@@H](NC(=O)[C@@H]1CCCN1C(=O)[C@H](Cc1ccccc1)NC(=O)[C@H](Cc1c[nH]cn1)NC(=O)[C@@H](NC(=O)[C@@H](N)CC(=O)O)[C@@H](C)O)[C@@H](C)CC)C(=O)N[C@@H](Cc1ccccc1)C(=O)O [Peptide 2, reference compound]	2.11 µM	half-life at 20 μM ([2]; male, human, serum): ~3 min
CC[C@H](C)[C@H](NC(=O)[C@H](CS)NC(=O)[C@H]([C@@H](C)CC)N(C)C(=O)[C@@H]1CCCN1C(=O)[C@H](Cc1ccccc1)NC(=O)[C@H](Cc1c[nH]cn1)NC(=O)[C@H]([C@@H](C)O)N(C)C(=O)[C@@H](N)CO)C(=O)N[C@@H](Cc1ccccc1)C(=O)O [Peptide 5, S[N-Me T]HFP[N-Me I]CIF] (HELM PEPTIDE1{S.[meT].H.F.P.[meI].C.I.F}$$$$V2.0; N-terminus assumed)	40.7 µM	
CC[C@H](C)[C@@H]1NC(=O)[C@@H]2CCCN2C(=O)[C@H](Cc2ccccc2)NC(=O)[C@H](Cc2c[nH]cn2)NC(=O)[C@H]([C@@H](C)O)N(C)C(=O)[C@H](CO)NC(=O)[C@H](Cc2ccccc2)NC(=O)[C@H]([C@@H](C)CC)N(C)C(=O)[C@H](CS)NC1=O [Peptide 13, c(S[N-Me T]HFPIC[N-Me I]F)] (HELM PEPTIDE1{S.[meT].H.F.P.I.C.[meI].F}$PEPTIDE1,PEPTIDE1,1:R1-9:R2$$$V2.0)	0.14 µM	Caco-2 permeability [3]: paralleled these observations
CC[C@H](C)[C@@H]1NC(=O)[C@H](CS)NC(=O)[C@H]([C@@H](C)CC)NC(=O)[C@@H]2CCCN2C(=O)[C@H](Cc2ccccc2)NC(=O)[C@H](Cc2c[nH]cn2)NC(=O)[C@H]([C@@H](C)O)NC(=O)[C@H](CC(=O)O)NC(=O)[C@H](Cc2ccccc2)NC1=O [Peptide 8]		half-life at 20 μM ([2]; serum (25% v/v), 20 μM peptide in 25% human male serum, 37 °C, read-out: peptide half-life in serum): ~8 min
CC[C@H](C)[C@@H]1NC(=O)[C@@H](NC(=O)[C@@H](NC(=O)[C@@H]2CCCN2C(=O)[C@H](Cc2ccccc2)NC(=O)[C@H](Cc2c[nH]cn2)NC(=O)[C@@H](NC(=O)[C@@H](N)CC(=O)O)[C@@H](C)O)[C@@H](C)CC)CSSC[C@@H](C(=O)N[C@@H](CCCCN)C(=O)N[C@H](C(=O)O)[C@@H](C)O)NC(=O)[C@@H]2CSSC[C@@H]3NC(=O)[C@@H]4CSSC[C@H](NC(=O)[C@H](Cc5ccccc5)NC1=O)C(=O)N[C@@H](CSSC[C@H](NC(=O)[C@H](CCCCN)NC(=O)[C@H](CO)NC(=O)[C@H](CCCNC(=N)N)NC(=O)[C@H](Cc1c[nH]cn1)NC3=O)C(=O)NCC(=O)N[C@@H](CCSC)C(=O)N2)C(=O)NCC(=O)N4 [Peptide 1, reference compound]	0.00938 µM	FPN Degradation % ± SEM [1]: 100 ± 2.6%

Continued, in another order:

EC50 [1]	Compound	further results
0.326 µM	STHFPICIF-OH [Peptide 3]	
1.89 µM	CC[C@H](C)[C@@H](C(=O)N[C@@H](Cc1ccccc1)C(=O)O)N(C)C(=O)[C@H](CS)NC(=O)[C@H]([C@@H](C)CC)N(C)C(=O)[C@@H]1CCCN1C(=O)[C@H](Cc1ccccc1)NC(=O)[C@H](Cc1c[nH]cn1)NC(=O)[C@H]([C@@H](C)O)N(C)C(=O)[C@@H](N)CO [Peptide 7, S[N-Me T]HFP[N-Me I]C[N-Me I]F] (HELM PEPTIDE1{S.[meT].H.F.P.[meI].C.[meI].F}$$$$V2.0; N-terminus assumed)	
0.158 µM	CC[C@H](C)[C@@H]1NC(=O)[C@H](CS)NC(=O)[C@H]([C@@H](C)CC)NC(=O)[C@@H]2CCCN2C(=O)[C@H](Cc2ccccc2)NC(=O)[C@H](Cc2c[nH]cn2)NC(=O)[C@H]([C@@H](C)O)NC(=O)[C@H](CC(=O)O)NC(=O)CNC(=O)CNC(=O)CNC(=O)CNC(=O)[C@H](Cc2ccccc2)NC1=O [Peptide 10] (HELM PEPTIDE1{C.I.F.G.G.G.G.D.T.H.F.P.I}$PEPTIDE1,PEPTIDE1,1:R1-13:R2$$$V2.0)	
0.266 µM	CC[C@H](C)[C@@H]1NC(=O)[C@H](CS)NC(=O)[C@H]([C@@H](C)CC)NC(=O)[C@@H]2CCCN2C(=O)[C@H](Cc2ccccc2)NC(=O)[C@H](Cc2c[nH]cn2)NC(=O)[C@H]([C@@H](C)O)NC(=O)[C@H](CO)NC(=O)[C@H](Cc2ccccc2)NC1=O [Peptide 9] (HELM PEPTIDE1{C.I.F.S.T.H.F.P.I}$PEPTIDE1,PEPTIDE1,1:R1-9:R2$$$V2.0)	
2.17 µM	CC[C@H](C)[C@H](NC(=O)[C@@H]1CCCN1C(=O)[C@H](Cc1ccccc1)NC(=O)[C@H](Cc1c[nH]cn1)NC(=O)[C@H]([C@@H](C)O)N(C)C(=O)[C@@H](N)CO)C(=O)N[C@@H](CS)C(=O)N(C)[C@H](C(=O)N[C@@H](Cc1ccccc1)C(=O)O)[C@@H](C)CC [Peptide 6, S[N-Me T]HFPIC[N-Me I]F] (HELM PEPTIDE1{S.[meT].H.F.P.I.C.[meI].F}$$$$V2.0; N-terminus assumed)	half-life at 20 μM ([2]; 25% (v/v) human male serum, 20 μM peptide in 25% human male serum, 37 °C, read-out: peptide half-life in serum): ~12 min; stability relative to Hep9 ([2]; 25% human male serum, 37 °C, ratio of half-lives): approximately four
